Where two headings read alike, the source gives them in different places. Square brackets hold non-standard residues; d marks the D form. Peptide text beside a SMILES is read from it. Trp(5-OH) = N[C@@H](Cc1c[nH]c2ccc(O)cc12)C(=O)O
Test system: brain levels of L-5-hydroxytryptophan (L-5-HTP), serotonin (5-HT) and 5-hydroxyindoleacetic acid (5-HIAA)
Assay: Biochemical analysis of brain levels of L-5-HTP, 5-HT and 5-HIAA one hour after a single dose (technique of CURZON and GREEN)
Format: in vivo, rats
Settings: for change in vivo at 10 mg/kg / change in vivo at 25 mg/kg / change in vivo at 50 mg/kg: Rattus norvegicus, 1 h; for change in vivo at 10 mg/kg: read-out: %, relative to the controls, of L-5-HTP at dose of 10 mg/kg
Protocol: Biochemical analysis of the brain levles of L-5-hydroxytryptophan (L-5-HTP), serotonin (5-HT) and its first metabolite, 5-hydroxyindoleacetic acid (5- HIAA), was carried out one hour after the administration of a single dose to adult rats by the technique of CURZON and GREEN. Three doses were studied, i.e. 10, 25 and 50 mg/kg, 10 animals being used per dose. Table I below indicates the percentage increases in 5-HTP, 5-HT and 5-HIAA relative to the levels found in the control animals: […]

[1] = brain level, adult rats, single dose 10 mg/kg, one hour after administration, percentage increase relative to control animals
[2] = brain level, adult rats, single dose 25 mg/kg, one hour after administration, percentage increase relative to control animals, read-out: %, relative to the controls, of 5-HIAA at dose of 25 mg/kg
[3] = brain level, adult rats, single dose 25 mg/kg, one hour after administration, percentage increase relative to control animals, read-out: %, relative to the controls, of L-5-HTP at dose of 25 mg/kg
[4] = brain level, adult rats, single dose 50 mg/kg, one hour after administration, percentage increase relative to control animals, read-out: %, relative to the controls, of 5-HIAA at dose of 50 mg/kg
[5] = brain level, adult rats, single dose 50 mg/kg, one hour after administration, percentage increase relative to control animals, read-out: %, relative to the controls, of 5-HT at dose of 50 mg/kg
[6] = brain level, adult rats, single dose 25 mg/kg, one hour after administration, percentage increase relative to control animals
[7] = brain level, adult rats, single dose 50 mg/kg, one hour after administration, percentage increase relative to control animals

| Structure (SMILES) | change in vivo at 25 mg/kg [2] | change in vivo at 25 mg/kg [3] | change in vivo at 50 mg/kg [4] | change in vivo at 50 mg/kg [5] | %, relative to the controls, of 5-HIAA at dose of 10 mg/kg [1] | %, relative to the controls, of 5-HT at dose of 10 mg/kg [1] | %, relative to the controls, of 5-HT at dose of 25 mg/kg [6] | other results |
| --- | --- | --- | --- | --- | --- | --- | --- | --- |
| N=C(N)NCCC[C@H](NC(=O)[C@@H](N)Cc1c[nH]c2ccc(O)cc12)C(=O)O [Example 18, 5-Hydroxy-L-tryptophyl-L-arginine] (H-[Trp(5-OH)]-Arg-OH) | 15% | 300% | 15% | 30% | 10% | 12% | 30% | change in vivo at 10 mg/kg [1]: 100%; change in vivo at 50 mg/kg (brain level, adult rats, single dose 50 mg/kg, one hour after administration, percentage increase relative to control animals, read-out: %, relative to the controls, of L-5-HTP at dose of 50 mg/kg): 500% |
| N[C@@H](Cc1c[nH]c2ccc(O)cc12)C(=O)NCC(=O)O [Example 19, 5-HYDROXY-L-TRYPTOPHYLGLYCINE] (H-[Trp(5-OH)]-Gly-OH) | 170% | 700% | 350% | 30% | 75% | 30% | 12% |  |
| NC(=O)[C@@H](N)Cc1c[nH]c2ccc(O)cc12.O [Example 21, 5-HYDROXY-L-TRYPT[…], HYDRATE] |  |  |  |  |  |  |  | change in vivo at 25 mg/kg (read-out: %, relative to the controls, of 5-HIAA at dose of 25 mg/kg): 50%; change in vivo at 50 mg/kg (read-out: %, relative to the controls, of 5-HIAA at dose of 50 mg/kg): 170%; change in vivo at 50 mg/kg (read-out: %, relative to the controls, of 5-HT at dose of 50 mg/kg): 20%; change in vivo at 10 mg/kg: 125%; change in vivo at 25 mg/kg (read-out: %, relative to the controls, of L-5-HTP at dose of 25 mg/kg): 250%; change in vivo at 50 mg/kg (read-out: %, relative to the controls, of L-5-HTP at dose of 50 mg/kg): 700% |
| NC(=O)[C@@H](N)Cc1c[nH]c2ccc(O)cc12.O [Example 21, 5-HYDROXY-L-TRYPT[…]] |  |  |  |  | 30% |  |  |  |
| COC(=O)[C@H](Cc1c[nH]cn1)NC(=O)[C@@H](N)Cc1c[nH]c2ccc(O)cc12 [Example 22, METHYL ESTER OF 5-HYDROXY-L-TRYPTOPHYL-L-HISTIDINE] (H-[Trp(5-OH)]-His-OMe) |  |  |  |  | 40% |  | 15% | %, relative to the controls, of 5-HIAA at dose of 25 mg/kg [6]: 140%; %, relative to the controls, of L-5-HTP at dose of 25 mg/kg [6]: 200%; %, relative to the controls, of 5-HIAA at dose of 50 mg/kg [7]: 300%; %, relative to the controls, of 5-HT at dose of 50 mg/kg [7]: 15%; %, relative to the controls, of L-5-HTP at dose of 50 mg/kg [7]: 300% |

Source: US4518587A, “Dipeptides of L-5-hydroxytryptophan, processes for their preparation and drugs in which they are present” (S.A. Panmedica, priority 1983, dated 1985)
